In patent US10441657B2, “Methods and compositions for self-regulated release of active pharmaceutical ingredient” (Acura Pharmaceuticals, Inc., priority 2012, dated 2019):

Tests used:
[1] = pH of dissolution vessel with calcium carbonate antacid tablets in HCl; assay type: physicochemical; settings: in 10 minutes (FIG. 1)
Protocol: Two dissolution vessels were prepared: one vessel contained 25 mEq of HCl and a single commercially available calcium carbonate antacid tablet (Tums®), and the other vessel contained 25 mEq of HCl and five calcium carbonate antacid tablets. […] Calcium carbonate has shown a capability as a pH modifier and pH dependent solubility.

[2] = earlier experimentation
Protocol: Thus, sodium bicarbonate was added to a prototype formulation primarily to control rapid pH elevation and calcium carbonate for a more sustained control of elevated pH.

SMILES | pH change seen for calcium carbonate [1] | time to raise acid media from pH 1 to pH 6 [2]
O=C([O-])[O-].[Ca+2] [calcium carbonate] | 5 | –
O=C([O-])O.[Na+] [sodium bicarbonate] | – | less than 2 minutes
